{"source": "paper PMC8149352", "about": "(Cancer Chemotherapy and Pharmacology, 2021)", "key": {"[1]": {"test": "Part B safety: adverse events (NCI CTCAE v5.0), safety population", "assay_type": "in vivo, human (patients with solid tumors)", "conditions": "by treatment period", "protocol": "Part B of the core phase assessed the effect of the strong CYP3A inhibitor itraconazole on the PK of pamiparib in patients with solid tumors. All patients received a single dose of oral pamiparib 20 mg on days 1 and 7, and oral itraconazole 200 mg QD on days 3–8. The 20-mg pamiparib dose, the lowest dose strength available and one-sixth of the highest phase 1 dose (120 mg), was deemed sufficient to cover the plasma exposure increase due to complete blockade of CYP3A by itraconazole. Part B patients fasted for at least 8 h before and at least 4 h after pamiparib administration, except for day 7 upon which itraconazole administration occurred ~ 30 min after completing a meal and pamiparib administration followed within 5 min of itraconazole administration. Blood samples for PK analysis were obtained on days 1 and 7 at the same time points listed above for Part A. After completing the core phase in Part A and Part B, patients were offered participation in the extension phase, in which they were to receive pamiparib PO BID in 28-day cycles until disease progression, unacceptable toxicity, withdrawal of consent, or any other reason for discontinuation.\n(§1) Adverse events (AEs) were monitored throughout the study and were graded according to the National Cancer Institute Common Terminology Criteria v5.0.\n(§2) The safety population included all patients who received at least one dose of pamiparib. […] Plasma PK parameters were calculated from pamiparib concentration–time profiles using standard noncompartmental methods. PK parameters were calculated using Phoenix WinNonlin v6.4 or higher (Certara, Princeton, NJ, USA). […] Data for each treatment part were analyzed separately. Log-transformed AUC and Cmax values were analyzed using a linear mixed-effect model analysis assuming a fixed effect for treatment and a random effect for patients. The study design called for ~ 24 patients (12 in each part) to be enrolled to ensure at least 20 (10 in each part) completed the study. This sample size was based on the precedent set by other PK studies of a similar nature and was not based on power calculations."}, "CYP3A rather than CYP2C8": {"system": "CYP3A rather than CYP2C8", "set-up": "method as in PMID 11136296", "conditions": "cited from earlier work"}, "CYP2C8": {"system": "CYP2C8", "set-up": "method as in PMID 21838784", "conditions": "cited from earlier work"}, "[2]": {"test": "Part A safety: adverse events (NCI CTCAE v5.0), safety population", "assay_type": "in vivo, human (patients with advanced solid tumors)", "conditions": "Part A (N = 12); by treatment period", "protocol": "This was an open-label, parallel-group, phase 1 study consisting of a 2-part core phase and an extension phase. Only results for the core phases are reported herein (Supplementary Fig. 1). […] Blood samples for PK analysis were obtained on days 1 and 10 at predose, and at 0.5, 1, 2, 4, 6, 9, 12, 24, and 48 h postdose. Pamiparib plasma concentrations were determined using a validated liquid chromatography–mass spectrometry/mass spectrometry method (lower limit of quantification 1.0 ng/mL) at Covance Laboratory Services (Salt Lake City, Utah).\nas §1, §2"}, "P-glycoprotein": {"system": "P-glycoprotein", "set-up": "method as in PMID 32652442", "conditions": "cited from earlier work"}, "[3]": {"set-up": "method as in PMID 27745744", "conditions": "cited from earlier work"}, "[4]": {"conditions": "Part B (N = 13; N = 12 for pamiparib with itraconazole)"}, "[5]": {"conditions": "olaparib with itraconazole administration"}}}
{"smiles": "CCC(C)n1ncn(-c2ccc(N3CCN(c4ccc(OCC5COC(Cn6cncn6)(c6ccc(Cl)cc6Cl)O5)cc4)CC3)cc2)c1=O", "note": "(centres unmarked) [Itraconazole, itraconazole, reference compound]", "values": [{"measurement": "All TEAEs (any grade), patients", "setting": "[1]; [4]", "value": "2 (15.4) n (%)"}, {"measurement": "Any treatment-related TEAE, patients", "setting": "[1]; [4]", "value": "1 (7.7) n (%)"}, {"measurement": "Grade >= 3 TEAE, patients", "setting": "[1]; [4]", "value": "1 (7.7) n (%)"}, {"measurement": "Serious AE, patients", "setting": "[1]; [4]", "value": "1 (7.7) n (%)"}, {"measurement": "Treatment-related TEAE related to itraconazole only, patients", "setting": "[1]; [4]", "value": "0 n (%)"}, {"measurement": "Treatment-related TEAE related to pamiparib only, patients", "setting": "[1]; [4]", "value": "0 n (%)"}, {"measurement": "Serious AE related to both, patients", "setting": "[1]; Part B", "value": "0 n (%)"}, {"measurement": "Serious AE related to itraconazole only, patients", "setting": "[1]; Part B", "value": "0 n (%)"}, {"measurement": "Serious AE related to pamiparib only, patients", "setting": "[1]; Part B", "value": "0 n (%)"}, {"measurement": "specificity of inhibition for CYP3A rather than CYP2C8", "setting": "CYP3A rather than CYP2C8", "value": "~ 100 fold"}, {"measurement": "in vivo CYP2C8 inhibition", "setting": "CYP2C8; inferred from montelukast clinical study", "value": "negligible"}]}
{"smiles": "CO[C@H]1/C=C/O[C@@]2(C)Oc3c(C)c(O)c4c(O)c(c(/C=N/N5CCN(C)CC5)c(O)c4c3C2=O)NC(=O)/C(C)=C\\C=C\\[C@H](C)[C@H](O)[C@@H](C)[C@@H](O)[C@@H](C)[C@H](OC(C)=O)[C@@H]1C", "note": "[Rifampin, rifampin, reference compound]", "values": [{"measurement": "Any treatment-related TEAE, patients", "setting": "[2]", "value": "1 (8.3) n (%)"}, {"measurement": "Grade >= 3 TEAE, patients", "setting": "[2]", "value": "0 n (%)"}, {"measurement": "Serious AE, patients", "setting": "[2]", "value": "0 n (%)"}, {"measurement": "Treatment-related TEAE related to both, patients", "setting": "[2]", "value": "0 n (%)"}, {"measurement": "Treatment-related TEAE related to pamiparib only, patients", "setting": "[2]", "value": "0 n (%)"}, {"measurement": "Treatment-related TEAE related to rifampin only, patients", "setting": "[2]", "value": "1 (8.3) n (%)"}]}
{"smiles": "CC(C)(O)c1ccccc1CC[C@@H](SCC1(CC(=O)O)CC1)c1cccc(/C=C/c2ccc3ccc(Cl)cc3n2)c1", "note": "[montelukast]", "values": [{"measurement": "effect of CYP2C8 inhibitor gemfibrozil on montelukast AUC", "setting": "CYP2C8", "value": "markedly increased"}, {"measurement": "effect of itraconazole coadministration on montelukast PK", "setting": "CYP2C8", "value": "no significant effects"}]}
{"smiles": "O=C(c1cc(Cc2n[nH]c(=O)c3ccccc23)ccc1F)N1CCN(C(=O)C2CC2)CC1", "note": "[olaparib]", "values": [{"measurement": "P-glycoprotein substrate status", "setting": "P-glycoprotein", "value": "substrate of P-glycoprotein"}, {"measurement": "AUC treatment ratio with itraconazole", "setting": "[3]; [5]", "value": 2.70}, {"measurement": "Cmax treatment ratio with itraconazole", "setting": "[3]; [5]", "value": 1.42}, {"measurement": "AUC increase with itraconazole observed in one patient", "setting": "[3]; olaparib with itraconazole, one patient", "value": "sevenfold"}]}
{"smiles": "CNCc1ccc(-c2[nH]c3cc(F)cc4c3c2CCNC4=O)cc1", "note": "[rucaparib]", "values": [{"measurement": "P-glycoprotein substrate status", "setting": "P-glycoprotein", "value": "substrate of P-glycoprotein"}]}
{"smiles": "Cn1ncnc1[C@H]1c2n[nH]c(=O)c3cc(F)cc(c23)N[C@@H]1c1ccc(F)cc1", "note": "[talazoparib]", "values": [{"measurement": "P-glycoprotein substrate status", "setting": "P-glycoprotein", "value": "substrate of P-glycoprotein"}]}
{"smiles": "C[C@]1(c2nc3c(C(N)=O)cccc3[nH]2)CCCN1", "note": "[veliparib]", "values": [{"measurement": "P-glycoprotein substrate status", "setting": "P-glycoprotein", "value": "substrate of P-glycoprotein"}]}
